Legend:
[1] = pKa, potentiometric AstraZeneca in-house assay (or ACD / BioByte); details: measured, potentiometric
From the text: (§1) The pKa values associated with ionisable centres identified within a given drug were used to calculate the fraction of drug ionised at pH 6.5. Drugs were then classified into groups as follows: drugs with > 50% unionised at pH 6.5 were classified as “Neutral”; drugs with > 50% ionised as mono −/di −/tri-protic acids or bases were classified as “Acid” or “Base”, respectively; “Zwitterions” were classified as drugs with > 50% ionised, with the major ionised species having no net charge; all other drugs were classified as amphoteric. […] LogD6.5 for neutral, amphoteric and zwitterion drugs were assumed to be equal to LogD7.4.

[2] = LogD6.5 estimated from LogD7.4 and pKa; details: octanol/buffer, pH 6.5
From the text: as §1

[3] = Observed clearance ratio and fraction reabsorbed (Freab, Freab′) calculated from CLR, fu,p and GFR; details: for Apparent Freab / Apparent Freab’: calculated from observed CLR, fu,p and GFR; for Freab: observed/apparent, 1 - CLR/(GFR x fu,p), GFR 120 mL/min
Experimental: The clearance ratio was calculated from clinical data using Eqs. […] For the remaining drugs the fraction reabsorbed (Freab) was calculated using Eq.
GFR values for healthy subjects may vary as a result of biological as well as inter-individual variation and also the method of measurement. […] Individual GFR values for subjects in clinical trials databases were generally not available.
In the proposed model, the nephron is represented as five compartments, namely the glomerulus and four tubular regions, as depicted in Fig. 1. The tubular compartments in the model, listed in anatomical order starting from the glomerulus are: the proximal tubule (PT), the loop of Henle (LoH), the distal tubule (DT) and the collecting duct (CD). […] The relationship between Freab′ and Freab is shown in Eq. (11). The predicted overall Freab′ was calculated from the predicted Freab′ in each (i) tubular region (Freab,i′), as shown in Eq. (12).

[4] = Caco-2 apparent permeability (Papp), apical to basolateral, pH 6.5-7.4 gradient, efflux inhibitor cocktail; details: human, Caco-2, pH 6.5
Experimental: (§2) The assay was performed using the apical to basolateral pH gradient format of pH 6.5 to pH 7.4. […] The efflux transporter inhibitor cocktail was used to minimise the effect of efflux transporters expressed in Caco-2 cells (e.g. P-glycoprotein, BCRP and MRP2) on the estimate of apical to basolateral Papp of substrates for such transporters.

Caco-2 cell monolayers = assay: as above; details: Caco-2, apical to basolateral, pH 6.5 to 7.4, efflux inhibitor cocktail, 2 h
Experimental: as §2

[5] = Ionisation classification at pH 6.5 from pKa; format: physicochemical; details: predominant species (> 50%) at pH 6.5 from measured or calculated pKa
From the text: as §1

[6] = Papp-Freab′ calibration of Caco-2 Papp with reference drugs and CLR prediction; parameters: species or system human; details: reference drugs; calibrated Caco-2 Papp after Hill equation fitting
From the text: To account for this and to allow the Caco-2 data in the present study to be transferable to other assay formats/laboratories, a Papp–Freab′ calibration method was explored by splitting the available Papp and Freab′ data into ‘reference’ and internal ‘validation’ subsets. […] The calibration approach is proposed as a pragmatic method to account for inter-assay/inter-laboratory differences; herein it is applied to the current dataset only, and not external data as intended for future studies.
In order to evaluate the application of Papp–Freab′ calibration (Eq. (17)), 11 drugs were selected as reference ‘calibrator’ drugs (Papp,ref) covering a representative range of Freab′ and Papp values (Table 5). The remaining 34 drugs were treated as an internal ‘validation’ set.

[7] = cited from earlier work; for CLR: healthy adult subjects, overall weighted mean of literature values, absolute (not normalised), ref Supplementary Results Table S2.1; for Overall weighted mean CLR: healthy subjects, plasma and urine data from same subjects, normalised for subject weight and body surface area where necessary; for Overall weighted mean CLR / CLR Observed: ref Table S2.1; for CLR Observed: overall weighted mean of values obtained from a literature survey
[8] = parameters: method as in Hammarlund et al., 1985; Swärd et al., 2005; details: healthy subjects or cardiac surgery patients, well hydrated; ref Hammarlund et al., 1985; Swärd et al., 2005; cited from earlier work
in vitro = details: human, Caco-2, pH 6.5
Experimental: as §2

[9] = LogD7.4 octanol-buffer, shake-flask (or ACD / BioByte); details: octanol/buffer, pH 7.4
From the text: as §1

Structure (SMILES)	pKa ([1]; pKa (acid))	logD [2]	Apparent Freab [3]	Apparent Freab’ [3]	Freab [3]	Papp A→B at 2 h [4] [×10⁻⁶ cm/s]	Papp (Caco-2 cell monolayers)	Ionisation at pH 6.5 [5]	Papp,ref,calibrated [6]	CLR [7] [mL/min]	Overall weighted mean CLR [7] [mL/min]	CLR Observed [7] [mL/min]	increase in urine flow compared to control conditions [8]	Papp A→B (in vitro) [×10⁻⁶ cm/s]	pKa ([1]; pKa (base))	logD [9]
CCCNC(=O)NS(=O)(=O)c1ccc(Cl)cc1 [Chlorpropamide]	4.69	0.56	0.907	0.915	0.91	88.1	88.1 × 10^− 6 cm/s	Acid	111.60 × 10^− 6 cm/s	0.56	0.6	0.56				
NS(=O)(=O)c1cc(C(=O)O)c(NCc2ccco2)cc1Cl [Furosemide]													up to 20 mL/ min			
NCC1(CC(=O)O)CCCCC1 [Gabapentin]			0.183	0.185	0.18			Zwitterion		95.1	95.1	95.05		0.67		
C=CCOc1ccccc1OCC(O)CNC(C)C (centres unmarked) [Oxprenolol]			0.443	0.447	0.44	30	29.95 × 10^− 6 cm/s	Base	12.00 × 10^− 6 cm/s	9.35	9.4	9.35			9.6	0.23
C[C@@H]1CN(c2c(F)c(N)c3c(=O)c(C(=O)O)cn(C4CC4)c3c2F)C[C@H](C)N1 [Sparfloxacin]	6.31		0.731	0.737	0.73	49.8	49.83 × 10^− 6 cm/s	Zwitterion	34.35 × 10^− 6 cm/s	21.7	21.7	21.69			8.94	
Cc1cccc(C)c1NC(=O)C(C)N (centres unmarked) [Tocainide]			0.181	0.183	0.18	19	19 × 10^− 6 cm/s	Base	4.68 × 10^− 6 cm/s	67.5	67.5	67.50				0.03
C[C@@H](c1ncncc1F)[C@](O)(Cn1cncn1)c1ccc(F)cc1F [Voriconazole]		1.7				96.5	96.51 × 10^− 6 cm/s	Neutral	134.68 × 10^− 6 cm/s	1.57	1.6	1.57				1.7

From paper PMC5074076, “Novel minimal physiologically-based model for the prediction of passive tubular reabsorption and renal excretion clearance” (European Journal of Pharmaceutical Sciences, 2016)
